Molecular target: T1, human calcium receptor (Homo sapiens, UniProt P41180)
T1 construct: expressed in transfected cells; host or cells: cell strain derived from rat adrenal, co-transformed with luciferase cDNA
T1 sequence (P41180 20-1078): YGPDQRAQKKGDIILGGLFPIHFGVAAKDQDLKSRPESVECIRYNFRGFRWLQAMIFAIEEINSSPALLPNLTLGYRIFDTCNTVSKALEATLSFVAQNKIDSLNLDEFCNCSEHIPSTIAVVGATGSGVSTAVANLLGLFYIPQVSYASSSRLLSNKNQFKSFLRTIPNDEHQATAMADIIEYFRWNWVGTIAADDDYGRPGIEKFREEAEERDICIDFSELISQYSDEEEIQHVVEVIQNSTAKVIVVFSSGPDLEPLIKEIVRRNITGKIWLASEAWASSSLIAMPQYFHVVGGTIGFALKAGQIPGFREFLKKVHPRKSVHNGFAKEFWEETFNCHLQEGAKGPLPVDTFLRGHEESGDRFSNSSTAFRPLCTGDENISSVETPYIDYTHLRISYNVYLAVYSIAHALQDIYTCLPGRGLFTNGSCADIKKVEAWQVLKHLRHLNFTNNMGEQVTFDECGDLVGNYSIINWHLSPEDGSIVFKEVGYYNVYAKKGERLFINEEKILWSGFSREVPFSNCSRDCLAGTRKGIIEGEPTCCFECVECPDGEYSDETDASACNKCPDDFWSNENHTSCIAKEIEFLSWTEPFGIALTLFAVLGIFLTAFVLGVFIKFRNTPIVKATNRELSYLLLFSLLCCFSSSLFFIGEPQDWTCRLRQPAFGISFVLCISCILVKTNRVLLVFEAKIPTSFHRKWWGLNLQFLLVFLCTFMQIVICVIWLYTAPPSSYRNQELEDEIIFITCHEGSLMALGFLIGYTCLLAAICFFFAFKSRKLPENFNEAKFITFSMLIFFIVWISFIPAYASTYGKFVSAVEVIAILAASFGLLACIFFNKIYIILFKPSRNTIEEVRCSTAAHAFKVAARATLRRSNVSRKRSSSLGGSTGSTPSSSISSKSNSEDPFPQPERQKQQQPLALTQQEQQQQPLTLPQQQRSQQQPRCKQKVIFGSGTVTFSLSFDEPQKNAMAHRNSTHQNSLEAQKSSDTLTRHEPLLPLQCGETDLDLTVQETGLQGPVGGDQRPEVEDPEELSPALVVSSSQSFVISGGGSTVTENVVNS
Assay: Evaluation of antagonistic action on calcium receptor using reporter gene (luciferase)
Assay type: cell-based
Settings: transformed rat adrenal derived cells, 5 mM calcium chloride, culture 4 hrs, luciferase activity; read-out: Reporter gene assay (IC50, concentration showing 50% inhibitory rate)
In short: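 Rat adrenal-derived cells transfected with luciferase and human calcium receptor cDNA, in F12 with 0.5% dialyzed horse serum and 0.25% dialyzed fetal bovine serum. Luciferase luminescence gave % inhibition vs control and blank; IC50 at 50% inhibition.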

| Structure (SMILES) | IC50 [nM] |
| --- | --- |
| Cc1cc(C(=O)O)cc(C)c1Oc1ccccc1C(C)OC[C@H](O)CNC(C)(C)Cc1ccc(Cl)cc1F (stereo partly drawn) [Example 2-13, 4-[2-[1-[(2R)-3-[[1-(4-chloro-2-fluorophenyl)-2-methylpropan-2-yl]amino]-2-hydroxypropoxy]ethyl]phenoxy]-3,5-dimethylbenzoic acid] | 22 |
| C[C@@H](OC[C@H](O)CNC(C)(C)Cc1ccc2ccccc2c1)c1ccccc1Cc1ccc(C(=O)O)cc1 [Example 2-14, 4-[2-[1-[(2R)-3-[[1-(naphthalen-2-yl)-2-methylpropan-2-yl]amino]-2-hydroxypropoxy]ethyl]benzyl]benzoic acid] | 53 |
| C[C@@H](OC[C@H](O)CNC(C)(C)Cc1ccc2ccccc2c1)c1ccccc1Cc1cccc(C(=O)O)c1 [Example 2-15, 3-[2-[1-[(2R)-3-[[1-(naphthalen-2-yl)-2-methylpropan-2-yl]amino]-2-hydroxypropoxy]ethyl]benzyl]benzoic acid] | 16 |
| CC(OC[C@H](O)CNC(C)(C)Cc1ccc2ccccc2c1)c1ccccc1Sc1ccc(C(=O)O)cc1 (stereo partly drawn) [Example 2-16, 4-[2-[1-[(2R)-3-[[1-(naphthalen-2-yl)-2-methylpropan-2-yl]amino]-2-hydroxypropoxy]ethyl]phenylthio]benzoic acid] | 14 |
| CC(OC[C@H](O)CNC(C)(C)Cc1ccc2ccccc2c1)c1ccccc1[S+]([O-])c1ccc(C(=O)O)cc1 (stereo partly drawn) [Example 2-17, 4-[2-[1-[(2R)-3-[[1-(naphthalen-2-yl)-2-methylpropan-2-yl]amino]-2-hydroxypropoxy]ethyl]phenylsulfinyl]benzoic acid] | 148 |
| CC(OC[C@H](O)CNC(C)(C)Cc1ccc2ccccc2c1)c1ccccc1S(=O)(=O)c1ccc(C(=O)O)cc1 (stereo partly drawn) [Example 2-18, 4-[2-[1-[(2R)-3-[[1-(naphthalen-2-yl)-2-methylpropan-2-yl]amino]-2-hydroxypropoxy]ethyl]phenylsulfonyl]benzoic acid] | 236 |
| CC(OC[C@H](O)CNC(C)(C)Cc1ccc2ccccc2c1)c1ccccc1NCc1ccc(C(=O)O)cc1 (stereo partly drawn) [Example 2-19, 4-[[2-[1-[(2R)-3-[[1-(naphthalen-2-yl)-2-methylpropan-2-yl]amino]-2-hydroxypropoxy]ethyl]phenylamino]methyl]benzoic acid] | 29 |

More lines, now with the values ahead:

| IC50 [nM] | Structure (SMILES) |
| --- | --- |
| 20 | CC(OC[C@H](O)CNC(C)(C)Cc1ccc2ccccc2c1)c1ccccc1OCc1ccccc1C(=O)O (stereo partly drawn) [Example 2-20, 2-[[2-[1-[(2R)-3-[[1-(naphthalen-2-yl)-2-methylpropan-2-yl]amino]-2-hydroxypropoxy]ethyl]phenoxy]methyl]benzoic acid] |
| 17 | CC(OC[C@H](O)CNC(C)(C)Cc1ccc2ccccc2c1)c1ccccc1OCc1cccc(C(=O)O)c1 (stereo partly drawn) [Example 2-21, 3-[[2-[1-[(2R)-3-[[1-(naphthalen-2-yl)-2-methylpropan-2-yl]amino]-2-hydroxypropoxy]ethyl]phenoxy]methyl]benzoic acid] |
| 17 | C[C@@H](OC[C@H](O)CNC(C)(C)Cc1ccc2ccccc2c1)c1ccccc1OCc1ccc(C(=O)O)cc1 [Example 2-22, 4-[[2-[1-[(2R)-3-[[1-(naphthalen-2-yl)-2-methylpropan-2-yl]amino]-2-hydroxypropoxy]ethyl]phenoxy]methyl]benzoic acid] |
| 27 | Cc1ccc(CC(C)(C)NC[C@@H](O)CO[C@H](C)c2ccccc2OCc2cccc(C(=O)O)c2)cc1F [Example 2-23, 3-[[2-[1-[(2R)-3-[[1-(3-fluoro-4-methylphenyl)-2-methylpropan-2-yl]amino]-2-hydroxypropoxy]ethyl]phenoxy]methyl]benzoic acid] |
| 57 | Cc1ccc(CC(C)(C)NC[C@@H](O)CO[C@H](C)c2ccccc2OCc2ccc(C(=O)O)cc2)cc1F [Example 2-24, 4-[[2-[1-[(2R)-3-[[1-(3-fluoro-4-methylphenyl)-2-methylpropan-2-yl]amino]-2-hydroxypropoxy]ethyl]phenoxy]methyl]benzoic acid] |
